Measured values from PMC4464647, “ANO1 (TMEM16A) in pancreatic ductal adenocarcinoma (PDAC)” (Pflugers Archiv, 2014).

Test system: VRAC
Experiment: Whole-cell patch-clamp of swelling-activated (VRAC) currents, hypotonic bath, 0 μM Ca2+ pipette
Assay type: cell-based, human
Conditions: HPDE and BxPC-3 cells, inhibitor 20 μM, Vm = +65 mV
Procedure: Cells were grown on poly-L-lysine coated coverslips. For knockdown experiments, cells were transfected with siRNA targeting ANO1 or scrambled siRNA shortly after complete attachment of the cells (approx. 3 h after plating). Currents were measured 36–48 h after transfection. Whole-cell patch-clamp recordings were performed using the Axopatch 200B amplifier interfaced to a Digidata 1440A controlled by pClamp10 software (Molecular Devices, USA). Analogue signals were acquired at 2.5 kHz and filtered at 1 kHz. […] An agar bridge made of 3 % agar and 97 % of the bath solution containing NMDG-Cl (below) was used as reference electrode. Current activations were recorded from an output holding potential, V out = 0 mV with ramp protocols spanning from −100 to 100 mV over 1 s and run continuously with 15-s intervals. […] Liquid junction potentials (V lj) were estimated as described in [10] with membrane potentials calculated as, V m = V out − V lj. […] Instantaneous currents were measured 1 ms after each voltage step. […]
One micromolar free Ca^2+ pipette solution include the following (in mM): 100 CsAsp, 40 CsCl, 4.34 CaCl2, 4 Na2ATP, 1 MgCl2, 5 EGTA, 10 HEPES, pH 7.2, osmolality 295 mosmol/kg or 0 μM free Ca^2+ solution containing no CaCl2 and 10 mM EGTA. […] All osmolalities were measured in a Wescor Vapro model 5520 osmometer (Wescor Inc., USA) calibrated by the manufacturer’s Optimol standard solutions. […]

SMILES: CC(C)(C)C1CCc2c(sc(NC(=O)c3ccco3)c2C(=O)O)C1 (centres unmarked) [CaCCinh-A01, 6-(1,1-dimethylethyl)-2-[(2-furanylcarbonyl)amino]-4,5,6,7-tetrahydrobenzo[b]thiophene-3-carboxylic acid]
- effect on VRAC currents: Neither T16Ainh-A01 nor CaCCinh-A01 inhibited the VRAC currents significantly

SMILES: CCc1c(C)nc(SCC(=O)Nc2nc(-c3ccc(OC)cc3)cs2)[nH]c1=O [T16Ainh-A01, 2-[(5-Ethyl-1,6-dihydro-4-methyl-6-oxo-2-pyrimidinyl)thio]-N-[4-(4-methoxyphenyl)-2-thiazolyl]acetamide]
- effect on VRAC currents: Neither T16Ainh-A01 nor CaCCinh-A01 inhibited the VRAC currents significantly
